In ChEMBL document CHEMBL1142558, “A new polyether ladder compound produced by the dinoflagellate Karenia brevis” (J Nat Prod, 2005):

What was measured:
Gambusia affinis = assay: Toxicity against Gambusia affinis assessed as time required for death at 1 ug/ml after 24 hrs; type: organism-based; settings: in vivo
[1] = Displacement of [3H]PbTx3 from VSSC in Sprague-Dawley rat brain synaptosomes; type: subcellular

SMILES: C=C(C=O)C[C@@H]1C[C@H](O)[C@]2(C)O[C@@H]3C[C@@H]4O[C@@H]5C[C@]6(C)O[C@]7(C)CC[C@@H]8O[C@@H]9C[C@]%10(C)O[C@@H]%11C(C)=CC(=O)O[C@H]%11C[C@H]%10O[C@H]9C[C@@H](C)[C@H]8O[C@H]7C[C@H]6O[C@@]5(C)C/C=C\[C@H]4O[C@H]3C[C@H]2O1 [BREVETOXIN B]
- Activity (Gambusia affinis): 7.5 min

SMILES: C=C/C=C\CC[C@H]1O[C@H]2CC[C@@]3(C)O[C@H]4[C@@H](O)C[C@@]5(C)O[C@@H](CC/C=C(C)/C(C)=C/C(OC)OC)[C@@H](C)C[C@@H]5O[C@@H]4C[C@@H]3O[C@@H]2CC[C@@]1(C)O [BREVENAL ACETAL]
- Ki [1]: 680 nM
- Activity (Gambusia affinis): Non-toxic

SMILES: C=C/C=C\CC[C@H]1O[C@H]2CC[C@@]3(C)O[C@H]4[C@@H](O)C[C@@]5(C)O[C@@H](CC/C=C(C)/C(C)=C/C=O)[C@@H](C)C[C@H]5O[C@@H]4C[C@@H]3O[C@@H]2CC[C@@]1(C)O [BREVENAL]
- Ki [1]: 1850 nM
- Activity (Gambusia affinis): Non-toxic
